{"source": "patent US10813980B2", "about": "“Methods for treating osteoarthritis by administering linked variants of growth hormone and somatostatin” (REGULAXIS, priority 2016, dated 2020)", "key": {"[1]": {"system": "male Duncan-Hartley guinea pigs", "experiment": "In vivo efficiency in guinea pig spontaneous knee osteoarthritis, intra-articular injection, histological analysis", "settings": "for cartilage thickness / sum of the scores representing the degradation of several structures in the joint (total scoring of degradation parameters): five month after intra-articular injection of 50 μl per knee; for cartilage thickness: * p<0.05; for sum of the scores representing the degradation of several structures in the joint (total scoring of degradation parameters): peptide 10^−7 M, vs control and hyaluronic acid alone", "procedure": "Peptide of the invention (corresponding to SEQ ID NO: 4) was dissolved at 2.5 mg/ml in water for injection (CDM Lavoisier) to make a stock solution conserved at −20° C. The syringe was prepared by aspiration of 50 μl of peptide work solution prepared just before use at 10^−7 M (other concentrations are tested) in NaCl 0.9% and kept on ice until use.\nThe study was performed on male Duncan-Hartley guinea pigs (Harlan), whose particularity is to be affected with age of spontaneous and progressive degeneration of the knee that closely resembles knee osteoarthritis (OA) in humans. Seven 5-month-old animals (weighing 879 g.+/−58.1) were injected per group. Animals were treated in accordance with institutional animal care guidelines. Animals were anesthetized with an anesthesia module (Minerva) with a rapid induction device (4% isoflurane) and anesthesia was maintained using a specific device mask in guinea coaxial (2.5% isoflurane). 50 μl of the peptide of the invention or control—salt solution or Hyalgan® (10 mg/ml solution of MW 500-730 kDa hyaluronic—Laboratoire Expanscience, available in the market)—were injected on each hind legs of the animal into the joint space from the lateral side using a 29 G needle. This was followed by passive knee joint movements to facilitate the intra-articular distribution of the solution.\nFive month after injection, the two knee joints from each animal were fixed for 36 to 48 hours in 10% buffered formalin then kept in 70% ethanol and followed by decalcification in 15% EDTA in phosphate buffer. Paraffin sections (3-4 μm) of the central region of the joint were stained with haematoxylin and eosin for histological analyses of cartilage structure, namely: loss of cartilage matrix, cellular abnormalities, appearance of articular cartilage mineralization front, formation of osteophytes and synovial membrane (microscopy: Nikon 80i). A semi-quantitative modified Mankin histological grading system was used to evaluate OA severity (Kraus et al., The OARSI histopathology initiative recommendations for histological assessments of osteoarthritis in the Guinea Pig. Osteoarthritis Cartilage, 2010 (18 S3) S35-S52). The articular cartilage area was analyzed quantitatively by immunohistochemistry (Pastoureau et al., Cartilage, bone and synovial histomorphometry in animal models of osteoarthritis. Osteoarthritis Cartilage. 2010 October; 18 Suppl 3:S106-12). Sections of guinea pig knees were stained with monoclonal antibody (monoclonal anti-chicken mouse collagen II, 6B3 clone—reference MAB887/250, Millipore). The measurement of the total area of articular cartilage was performed with Color deconvolution H DAB and Siox and the measurement of joint height by ImageJ (“Fit Ellipse” module). Statistical analyzes of scoring and quantification results were performed using a Kruskal-Wallis test followed by Dunn's test using PRISM software."}, "[2]": {"experiment": "Raman scattering measurements of peptide conformation (stability of the peptide)", "assay_type": "physicochemical", "settings": "in water, peptide 0.9 mM, with or without HA 1%", "procedure": "Peptide alone, at a concentration of 0.9 mM (2.5 mg/ml), was dissolved in a Millipore filter treated water. Peptide+HA solution consists of peptide dissolved at 0.9 mM in a solution of HA (1.8 MDa) at 1% (10 mg/ml) in water.\nSamples were placed in a suprasil quartz cell (5 mm path length) and excited by the 488 nm line of an Ar+ laser (Spectra Physics, CA, USA) with a ˜200 mW power at the sample. Scattered light at right angle was analyzed on a Jobin-Yvon T64000 (HORIBA Jobin-Yvon, France) in a single spectrograph configuration with a 1200 grooves per mm holographic grating and a holographic notch filter. Stokes Raman data were collected by means of a liquid nitrogen cooled CCD detection system (Spectrum One, Jobin-Yvon, France). The effective spectral slit width was set to ˜5 cm^−1. Each recorded spectrum corresponds to a total acquisition time of 1200 s. Buffer subtraction and smoothing of the observed Raman spectra could be performed using the GRAMS/AI package (Thermoage Galactic, MA, USA). The final presentation of these spectra was performed by means of SigmaPlot package (Systat Software Inc., CA, USA)."}, "[3]": {"settings": "listed as peptide of the invention"}, "[4]": {"settings": "five month after intra-articular injection, medial tibial surface of the knee, compared with sham (and HA)"}}, "note": "“And” between values parts separate entries of the source, which are not always exact repeats. Identical values can stand only once. No end group written: not given here."}
{"sequence": "GTSDRVYEKLAGSKNFFWKTFTSS [SEQ ID NO: 4]", "values": [{"measurement": "cartilage thickness", "setting": "[1]", "value": "increased cartilage thickness"}, {"measurement": "cartilage thickness", "setting": "[1]; [3]", "value": "increase in the thickness of the cartilage"}, {"measurement": "sum of the scores representing the degradation of several structures in the joint (total scoring of degradation parameters)", "setting": "[1]", "value": "significantly decreased degradation of cartilage structure"}, {"measurement": "sum of the scores representing the degradation of several structures in the joint (total scoring of degradation parameters)", "setting": "[1]; [3]", "value": "lowest"}, {"measurement": "osteophytes scoring", "setting": "[1]; five month after intra-articular injection, ** p<0.001", "value": "decreased osteophytes scoring"}, {"measurement": "type II Collagen content (staining)", "setting": "[1]; five month after intra-articular injection, immunohistochemistry, compared with sham (and HA)", "value": "greater synthesis of type II collagen"}, {"measurement": "cartilage structure scoring (cartilage structural damage)", "setting": "[1]; [4]", "value": "lowest severity"}, {"measurement": "proteoglycan content (proteoglycan loss)", "setting": "[1]; [4]", "value": "lowest severity"}, {"measurement": "secondary conformation / structure stability by Raman spectra", "setting": "[2]", "value": "unstable structure in water"}, {"measurement": "secondary conformation / structure stability by Raman spectra", "setting": "[2]; listed as peptide alone", "value": "Several (4) secondary conformations and 4 major bands"}]}
